Patent US4725687A (priority 1986, dated 1988)
Read-outs that look alike come from different tables or passages of the source.

Assays:
[1] = tested on: L1210 cells; experiment: Mediated transport (influx, efflux) in L1210 cells; type: cell-based; settings: n = 3-4, SE; for Km: influx
Description: (§1) (a) Methods are described by Sirotnak et al, "Molecular Actions and
(§2) Targets for Cancer Chemotherapy Agents", Sartorelli, A.C. Ed., Academic
(§3) Press., New York, pps. 349-383 (1981); Sirotnak et al, Biochem.
(§4) Pharmacol., Vol. 29, p. 3293 (1980); and Sirotnak et al, Cancer Res., Vol

[2] = tested on: L1210 cells; experiment: Rate of net polyglutamate formation in L1210 cells; type: cell-based; settings: for order of initial rates of polyglutamate accumulation: comparable rates of drug entry; for Rate of net polyglutamate formation: conditions of comparable rates of drug entry
[3] = tested on: P388/0; experiment: Survival of P388/0 bearing mice, in vivo; set-up: species or system murine; settings: for survival time: P388/0, ip, control 10.8 days; for % T/C: P388/0, survival time, ip
Description: (§5) Comparison of the Response of Murine P388/0
(§6) ^a Implant: ip, 10^6 cells; method described by Geran et al,
(§7) Cancer Chemother. Rep. Part 3, Vol. 3 (2) (1972).

[4] = tested on: P388/MTX; experiment: Survival of P388/MTX (MTX-resistant P388) bearing mice, in vivo; set-up: species or system murine; settings: ip; for survival time: control 17.2 days; for % T/C: survival time
Description: as §5, §6, §7

[5] = tested on: EO771 mammary adenocarcinoma; experiment: Antitumor effects against the EO771 mammary adenocarcinoma in mice; type: in vivo; settings: once per day for five days; for AWC (average weight change) / T/C (tumor volume treated/control) / tumor free total: day 7; for toxic deaths total: day 7, 14 or 21; for ave. tumor vol.: day 7, ± SE, control 225 ± 60; for tumor free total: control 0/14
Description: 5-Methyl-5-Deazamethotrexate (20) Against the EO771
Mammary Adenocarcinoma. Average of Two Separate
Experiments (5 Mice/Group) ± SE of the Mean.
^1 given once per day for five days starting one day after tumor
^2 average weight change on day 7 (one day after cessation of therapy
^3 assessed on day 7, 14 or 21
^4 assessed on day 7 (4/3 πr^3) T/C = treated/control
^5 assessed on day 7 (one day after cessation of therapy)

[6] = tested on: L1210 cells; experiment: L1210 cell growth inhibition in culture; type: cell-based; settings: for IC50: Mus musculus; for potency in the L1210 cell growth inhibition test relative to 5-deazamethotrexate: compared with 5-deazamethotrexate; for potency in the L1210 cell growth inhibition test relative to MTX: compared with MTX
Description: as §1, §2, §3, §4

[7] = read-out: Cell Growth inhibn IC50 (n = 4) ± SE, L1210 cells, n = 4, ± SE
[8] = qd 1-5, optimal dose 0.25 mg/kg

In the case of `CN(Cc1cnc2nc(N)nc(N)c2n1)c1ccc(C(=O)N[C@@H](CCC(=O)O)C(=O)O)cc1` [MTX, Methotrexate, reference compound], the “Mediated Transport efflux k + SE” value [1] is reported as 0.33 ± 0.06 min⁻¹, the Km [1] is reported as 3.3 ± 0.7 µM and the “order of initial rates of polyglutamate accumulation” value (“order” for short) [2] is reported as “AMT>5-Me-5-dAMT>5-dAMT>MTX>5-dMTX>5-Me5-dMTX”. For the same compound, the survival time ([3]; qd 1-5, optimal dose 4 mg/kg) was 19.7 days, the “% T/C” value ([3]; qd 1-5, optimal dose 4 mg/kg) was 182% and the survival time ([4]; qd 1-5, optimal dose 3.5 mg/kg) was 20.3 days. The “% T/C” value ([4]; qd 1-5, optimal dose 3.5 mg/kg) was 118%, the “AWC (average weight change)” value ([5]; 1.5 mg/kg) was “+0.9 g” and the “T/C (tumor volume treated/control)” value ([5]; 1.5 mg/kg) was 0.60. The toxic deaths total ([5]; 1.5 mg/kg) was 0/10, the ave. tumor vol. ([5]; 1.5 mg/kg) was 102 ± 32 mm^3 and the tumor free total ([5]; 1.5 mg/kg) was 1/10. For the same compound, the “AWC (average weight change)” value ([5]; 3.0 mg/kg) was -0.2 g, the “T/C (tumor volume treated/control)” value ([5]; 3.0 mg/kg) was 0.61 and the toxic deaths total ([5]; 3.0 mg/kg) was 0/10. The ave. tumor vol. ([5]; 3.0 mg/kg) was 108 ± 24 mm^3, the tumor free total ([5]; 3.0 mg/kg) was 1/10 and the “AWC (average weight change)” value ([5]; 6.0 mg/kg) was -2.1 g. For the same compound, the “T/C (tumor volume treated/control)” value ([5]; 6.0 mg/kg) was 0.12, the toxic deaths total ([5]; 6.0 mg/kg) was 4/10 and the ave. tumor vol. ([5]; 6.0 mg/kg) was 22 ± 5 mm^3. For the same compound, the tumor free total ([5]; 6.0 mg/kg) was “toxic”.

With `CCN(Cc1cnc2nc(N)nc(N)c2c1C)c1ccc(C(=O)N[C@@H](CCC(=O)O)C(=O)O)cc1` [Compound 21] the IC50 [6, 7] was 0.26 ± 0.02 nM, the “potency in the L1210 cell growth inhibition test relative to 5-deazamethotrexate” value [6] was “more than 10 times” and the “potency in the L1210 cell growth inhibition test relative to MTX” value [6] was 10 times. For the same compound, the “Mediated Transport efflux k + SE” value [1] was 0.29 ± 0.04 min⁻¹ and the Km [1] was 3.3 ± 0.5 µM.

For `CN(Cc1cnc2nc(N)nc(N)c2c1)c1ccc(C(=O)N[C@@H](CCC(=O)O)C(=O)O)cc1` [Compound 5-dMTX, 5-deazamethotrexate, reference compound], the IC50 [6, 7] was 2.85 ± 0.3 nM, the “Mediated Transport efflux k + SE” value [1] was 0.28 ± 0.04 min⁻¹ and the Km [1] was 4 ± 0.5 µM. For the same compound, the “order” value [2] was “AMT>5-Me-5-dAMT>5-dAMT>MTX>5-dMTX>5-Me5-dMTX”, the “Rate of net polyglutamate formation” value [2] was 48.8 pM/min/g dry wt and the survival time ([3]; qd 1-5, optimal dose 4 mg/kg) was 18.0 days. For the same compound, the “% T/C” value ([3]; qd 1-5, optimal dose 4 mg/kg) was 166%, the survival time ([4]; qd 1-5, optimal dose 4 mg/kg) was 20.3 days and the “% T/C” value ([4]; qd 1-5, optimal dose 4 mg/kg) was 118%.

`Cc1c(CN(C)c2ccc(C(=O)N[C@@H](CCC(=O)O)C(=O)O)cc2)cnc2nc(N)nc(N)c12` [Compound 20, N-[4-[[2,4-Diamino-5-methylpyrido[2,3-d]pyrimidin-6-yl)methyl]methylamino]benzoyl-L-glutamic Acid] was tested, and the IC50 [6, 7] was 0.24 ± 0.03 nM, the “potency in the L1210 cell growth inhibition test relative to 5-deazamethotrexate” value [6] was “more than 10 times” and the “potency in the L1210 cell growth inhibition test relative to MTX” value [6] was 10 times. For the same compound, the “Mediated Transport efflux k + SE” value [1] was 0.31 ± 0.05 min⁻¹, the Km [1] was 3.2 ± 0.4 µM and the “order” value [2] was “AMT>5-Me-5-dAMT>5-dAMT>MTX>5-dMTX>5-Me5-dMTX”. The “Rate of net polyglutamate formation” value [2] was 42.9 pM/min/g dry wt, the survival time ([3]; qd 1-5, optimal dose 1 mg/kg) was 19.7 days and the “% T/C” value ([3]; qd 1-5, optimal dose 1 mg/kg) was 182%. The survival time [4, 8] was 20.8 days, the “% T/C” value [4, 8] was 120% and the “T/C (tumor volume treated/control)” value ([5]; 0.375 mg/kg) was 0.25. For the same compound, the toxic deaths total ([5]; 0.375 mg/kg) was 0/10, the ave. tumor vol. ([5]; 0.375 mg/kg) was 50 ± 16 mm^3 and the tumor free total ([5]; 0.375 mg/kg) was 0/10. The “T/C (tumor volume treated/control)” value ([5]; 0.75 mg/kg) was 0.13, the toxic deaths total ([5]; 0.75 mg/kg) was 0/10 and the ave. tumor vol. ([5]; 0.75 mg/kg) was 35 ± 10 mm^3. For the same compound, the tumor free total ([5]; 0.75 mg/kg) was 1/10, the “T/C (tumor volume treated/control)” value ([5]; 1.5 mg/kg) was 0.03 and the toxic deaths total ([5]; 1.5 mg/kg) was 0/10. For the same compound, the ave. tumor vol. ([5]; 1.5 mg/kg) was 4 ± 2 mm^3, the tumor free total ([5]; 1.5 mg/kg) was 6/10 and the “T/C (tumor volume treated/control)” value ([5]; 3.0 mg/kg) was 0.02. For the same compound, the toxic deaths total ([5]; 3.0 mg/kg) was 5/6, the ave. tumor vol. ([5]; 3.0 mg/kg) was 3 ± 1 mm^3 and the tumor free total ([5]; 3.0 mg/kg) was “toxic”.

`Cc1c(CNc2ccc(C(=O)N[C@@H](CCC(=O)O)C(=O)O)cc2)cnc2nc(N)nc(N)c12` [Compound 12] was tested, and the IC50 ([6]; L1210, read-out: Cell Growth inhibn IC50 (n = 4) ± SE) was 1.29 ± 0.2 nM, the “Mediated Transport efflux k + SE” value [1] was 0.26 ± 0.05 min⁻¹ and the Km [1] was 1.2 ± 0.2 µM. For the same compound, the “order” value [2] was “AMT>5-Me-5-dAMT>5-dAMT>MTX>5-dMTX>5-Me5-dMTX”, the “Rate of net polyglutamate formation” value [2] was 98.3 pM/min/g dry wt and the survival time ([3]; qd 1-5, optimal dose 0.5 mg/kg) was 16.4 days. For the same compound, the “% T/C” value ([3]; qd 1-5, optimal dose 0.5 mg/kg) was 151%, the survival time ([4]; qd 1-5, optimal dose 0.5 mg/kg) was 20.8 days and the “% T/C” value ([4]; qd 1-5, optimal dose 0.5 mg/kg) was 120%.

`CCOC(=O)CC[C@H](NC(=O)c1ccc(NCc2cnc3nc(N)nc(N)c3c2)cc1)C(=O)OCC` [Compound 9, N-[4-[[(2,4-Diaminopyrido[2,3-d]pyrimidin-6-yl)methyl]-amino]benzoyl]-L-glutamic Acid Diethyl Ester] was tested, and the survival time ([3]; qd 1-5, optimal dose 1 mg/kg) was 16.2 days, the “% T/C” value ([3]; qd 1-5, optimal dose 1 mg/kg) was 151% and the survival time ([4]; qd 1-5, optimal dose 1 mg/kg) was 20.8 days. For the same compound, the “% T/C” value ([4]; qd 1-5, optimal dose 1 mg/kg) was 120%.

`Nc1nc(N)c2cc(CNc3ccc(C(=O)N[C@@H](CCC(=O)O)C(=O)O)cc3)cnc2n1` [Compound 11] was tested, and the IC50 [6, 7] was 0.63 ± 0.07 nM, the “Mediated Transport efflux k + SE” value [1] was 0.30 ± 0.04 min⁻¹ and the Km [1] was 1.1 ± 0.2 µM. For the same compound, the “order” value [2] was “AMT>5-Me-5-dAMT>5-dAMT>MTX>5-dMTX>5-Me5-dMTX”, the “Rate of net polyglutamate formation” value [2] was 84.2 pM/min/g dry wt and the survival time ([3]; qd 1-5, optimal dose 0.5 mg/kg) was 15.8 days. For the same compound, the “% T/C” value ([3]; qd 1-5, optimal dose 0.5 mg/kg) was 146%, the survival time ([4]; qd 1-5, optimal dose 2 mg/kg) was 21.8 days and the “% T/C” value ([4]; qd 1-5, optimal dose 2 mg/kg) was 126%.
